In article PMC3388080 (PLoS ONE, 2012):

Tests used:
[1] = Plasma and brain exposure at the end of the LMA experiment; assay type: in vivo, rat; settings: 35 min
Method: Locomotor activity (LMA) was evaluated at F. Hoffmann-La Roche as described previously. Male Wistar rats were placed for 2 weeks in a 12 h light/12 h dark cycle with light onset at 22∶00 (ZT0). […] Spontaneous LMA was recorded for a period of 30 min. At the end of the experiment, the brain and plasma were collected for determination of the drug exposure and brain/plasma concentration ratio.
The plasma and brain exposure of SB-334867 were measured at the end of the LMA experiment.

5-HT5A (h) = biological target: T1, 5-HT5A (h) (Homo sapiens, UniProt P47898); test: CEREP radioligand binding; settings: % of control specific binding
T1 construct: purchased CEREP
T1 sequence (P47898 whole entry): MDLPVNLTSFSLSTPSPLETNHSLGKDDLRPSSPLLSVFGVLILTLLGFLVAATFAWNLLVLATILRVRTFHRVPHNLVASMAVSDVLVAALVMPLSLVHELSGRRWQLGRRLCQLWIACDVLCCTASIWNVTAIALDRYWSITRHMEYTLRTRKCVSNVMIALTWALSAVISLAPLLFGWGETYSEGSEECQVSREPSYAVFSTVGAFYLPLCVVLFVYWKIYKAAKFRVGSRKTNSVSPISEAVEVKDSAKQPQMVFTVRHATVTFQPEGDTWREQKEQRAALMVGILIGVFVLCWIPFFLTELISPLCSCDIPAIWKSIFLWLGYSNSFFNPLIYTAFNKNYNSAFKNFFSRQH
Method: (§1) SB-334867 was evaluated in a selectivity screen performed at CEREP (Paris, France). The screen consisted of binding assays on a panel of 79 target receptors. The specific binding (SB) of a radioligand to each target receptor was defined as the difference between the total binding and the nonspecific binding determined in the presence of a cold competitor in excess. […] Details on the CEREP screen are available from www.cerep.fr.

5-HT6 (h) = biological target: T2, 5-HT6 (h) (Homo sapiens, UniProt P50406); test: CEREP radioligand binding; settings: % of control specific binding
T2 construct: purchased CEREP
T2 sequence (P50406 whole entry): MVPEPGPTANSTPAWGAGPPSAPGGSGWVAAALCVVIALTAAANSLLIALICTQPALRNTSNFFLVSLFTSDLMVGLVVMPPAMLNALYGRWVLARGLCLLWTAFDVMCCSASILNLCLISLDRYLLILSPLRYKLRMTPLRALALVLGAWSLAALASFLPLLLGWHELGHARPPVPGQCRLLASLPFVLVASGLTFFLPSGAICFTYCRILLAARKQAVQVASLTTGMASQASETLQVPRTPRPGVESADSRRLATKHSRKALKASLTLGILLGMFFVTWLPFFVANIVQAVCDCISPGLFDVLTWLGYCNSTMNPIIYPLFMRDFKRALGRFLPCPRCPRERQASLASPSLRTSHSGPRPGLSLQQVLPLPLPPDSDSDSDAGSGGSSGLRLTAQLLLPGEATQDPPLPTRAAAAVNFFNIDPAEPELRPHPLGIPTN
Method: as §1

5-HT7 (h) = biological target: T3, 5-HT7 (h) (Homo sapiens, UniProt P34969); test: CEREP radioligand binding; settings: % of control specific binding
T3 construct: purchased CEREP
Method: as §1

A2A (h) = biological target: T4, A2A (h) (Homo sapiens, UniProt P29274); test: CEREP radioligand binding
T4 construct: purchased CEREP
T4 sequence (P29274 whole entry): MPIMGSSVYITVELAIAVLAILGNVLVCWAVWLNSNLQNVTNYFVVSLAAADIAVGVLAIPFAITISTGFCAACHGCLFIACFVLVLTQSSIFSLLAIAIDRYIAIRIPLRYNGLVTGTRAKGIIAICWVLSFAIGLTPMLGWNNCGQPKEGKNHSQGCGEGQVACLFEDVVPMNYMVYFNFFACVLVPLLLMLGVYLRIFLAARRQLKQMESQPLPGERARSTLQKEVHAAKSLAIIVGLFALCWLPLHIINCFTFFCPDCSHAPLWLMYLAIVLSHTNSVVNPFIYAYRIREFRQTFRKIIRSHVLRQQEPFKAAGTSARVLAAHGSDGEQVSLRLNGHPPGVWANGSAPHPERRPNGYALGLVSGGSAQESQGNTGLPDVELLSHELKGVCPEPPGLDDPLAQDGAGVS
Method: as §1

AT1 (h) = biological target: T5, AT1 (h) (Homo sapiens, UniProt P30556); test: CEREP radioligand binding; settings: % of control specific binding
T5 construct: purchased CEREP
T5 sequence (P30556 whole entry): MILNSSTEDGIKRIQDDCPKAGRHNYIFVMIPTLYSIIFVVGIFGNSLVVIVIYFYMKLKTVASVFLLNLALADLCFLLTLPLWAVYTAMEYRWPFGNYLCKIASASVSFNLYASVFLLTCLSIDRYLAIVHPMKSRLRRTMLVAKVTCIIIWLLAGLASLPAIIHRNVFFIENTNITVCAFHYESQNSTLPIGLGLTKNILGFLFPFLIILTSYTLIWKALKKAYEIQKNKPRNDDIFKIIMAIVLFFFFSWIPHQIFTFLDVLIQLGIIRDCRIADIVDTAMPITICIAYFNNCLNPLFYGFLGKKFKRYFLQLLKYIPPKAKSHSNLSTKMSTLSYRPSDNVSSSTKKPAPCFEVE
Method: as §1

AT2 (h) = biological target: T6, AT2 (h) (Homo sapiens, UniProt P50052); test: CEREP radioligand binding; settings: % of control specific binding
T6 construct: purchased CEREP
Method: as §1

BB (non-selective) = test: CEREP radioligand binding; settings: % of control specific binding
Method: as §1

CCKA (h) (CCK1) = biological target: T7, CCKA (h) (CCK1) (Homo sapiens, UniProt P32238); test: CEREP radioligand binding; settings: % of control specific binding
T7 construct: purchased CEREP
Method: as §1

CGRP (h) = biological target: T8, CGRP (h) (Homo sapiens, UniProt O60894+Q16602); test: CEREP radioligand binding; settings: % of control specific binding
T8 construct: purchased CEREP
Method: as §1

CXCR2 (h) (IL-8B) = biological target: T9, CXCR2 (h) (IL-8B) (Homo sapiens, UniProt P25025); test: CEREP radioligand binding; settings: % of control specific binding
T9 construct: purchased CEREP
Method: as §1

D1 (h) = biological target: T10, D1 (h) (Homo sapiens, UniProt P21728); test: CEREP radioligand binding; settings: % of control specific binding
T10 construct: purchased CEREP
T10 sequence (P21728 whole entry): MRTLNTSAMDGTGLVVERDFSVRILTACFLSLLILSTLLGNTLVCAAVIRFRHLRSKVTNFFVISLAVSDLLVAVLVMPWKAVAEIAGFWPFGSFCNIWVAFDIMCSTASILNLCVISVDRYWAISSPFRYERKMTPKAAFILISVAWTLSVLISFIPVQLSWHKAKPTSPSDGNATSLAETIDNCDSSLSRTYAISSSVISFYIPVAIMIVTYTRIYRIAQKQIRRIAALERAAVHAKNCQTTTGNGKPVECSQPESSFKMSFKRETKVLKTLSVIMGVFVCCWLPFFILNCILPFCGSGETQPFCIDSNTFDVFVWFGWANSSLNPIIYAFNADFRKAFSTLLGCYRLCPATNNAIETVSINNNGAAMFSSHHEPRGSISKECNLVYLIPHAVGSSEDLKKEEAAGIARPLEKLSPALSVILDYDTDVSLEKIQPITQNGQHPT
Method: as §1

D3 (h) = biological target: T11, D3 (h) (Homo sapiens, UniProt P35462); test: CEREP radioligand binding; settings: % of control specific binding
T11 construct: purchased CEREP
T11 sequence (P35462 whole entry): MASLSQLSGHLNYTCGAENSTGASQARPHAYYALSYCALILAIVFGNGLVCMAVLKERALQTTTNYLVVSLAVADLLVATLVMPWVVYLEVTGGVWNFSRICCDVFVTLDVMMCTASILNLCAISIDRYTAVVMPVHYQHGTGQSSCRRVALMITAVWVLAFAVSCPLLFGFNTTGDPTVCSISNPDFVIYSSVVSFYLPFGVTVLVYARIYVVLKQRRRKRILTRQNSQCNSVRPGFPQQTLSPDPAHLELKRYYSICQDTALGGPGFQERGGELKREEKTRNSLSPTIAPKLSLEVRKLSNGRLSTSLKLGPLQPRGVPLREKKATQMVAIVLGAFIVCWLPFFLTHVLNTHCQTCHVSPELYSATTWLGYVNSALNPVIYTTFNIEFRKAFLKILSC
Method: as §1

D5 (h) = biological target: T12, D5 (h) (Homo sapiens, UniProt P21918); test: CEREP radioligand binding; settings: % of control specific binding
T12 construct: purchased CEREP
Method: as §1

DA transporter (h) = biological target: T13, DA transporter (h) (Homo sapiens, UniProt Q01959); test: CEREP radioligand binding; settings: % of control specific binding
T13 construct: purchased CEREP
T13 sequence (Q01959 whole entry): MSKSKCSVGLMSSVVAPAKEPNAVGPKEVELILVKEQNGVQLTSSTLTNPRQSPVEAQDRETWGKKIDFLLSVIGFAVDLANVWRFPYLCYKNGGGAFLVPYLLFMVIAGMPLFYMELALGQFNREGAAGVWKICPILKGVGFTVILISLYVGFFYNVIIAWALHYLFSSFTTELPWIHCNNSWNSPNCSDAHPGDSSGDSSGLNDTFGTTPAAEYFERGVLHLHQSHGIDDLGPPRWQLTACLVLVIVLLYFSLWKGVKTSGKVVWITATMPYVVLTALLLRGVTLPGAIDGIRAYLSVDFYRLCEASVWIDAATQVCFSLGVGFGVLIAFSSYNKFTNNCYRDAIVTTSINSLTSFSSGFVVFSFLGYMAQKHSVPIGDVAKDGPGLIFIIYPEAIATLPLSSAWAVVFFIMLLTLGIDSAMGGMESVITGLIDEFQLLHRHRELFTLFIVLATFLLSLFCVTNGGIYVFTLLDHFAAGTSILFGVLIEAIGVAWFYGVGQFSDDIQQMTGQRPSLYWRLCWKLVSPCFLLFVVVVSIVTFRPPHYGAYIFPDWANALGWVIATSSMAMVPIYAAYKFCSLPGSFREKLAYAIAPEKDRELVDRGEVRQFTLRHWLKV
Method: as §1

ETA (h) = biological target: T14, ETA (h) (Homo sapiens, UniProt P25101); test: CEREP radioligand binding; settings: % of control specific binding
T14 construct: purchased CEREP
Method: as §1

GABA (non-selective) = test: CEREP radioligand binding; settings: % of control specific binding
Method: as §1

GAL1 (h) = biological target: T15, GAL1 (h) (Homo sapiens, UniProt P47211); test: CEREP radioligand binding; settings: % of control specific binding
T15 construct: purchased CEREP
T15 sequence (P47211 whole entry): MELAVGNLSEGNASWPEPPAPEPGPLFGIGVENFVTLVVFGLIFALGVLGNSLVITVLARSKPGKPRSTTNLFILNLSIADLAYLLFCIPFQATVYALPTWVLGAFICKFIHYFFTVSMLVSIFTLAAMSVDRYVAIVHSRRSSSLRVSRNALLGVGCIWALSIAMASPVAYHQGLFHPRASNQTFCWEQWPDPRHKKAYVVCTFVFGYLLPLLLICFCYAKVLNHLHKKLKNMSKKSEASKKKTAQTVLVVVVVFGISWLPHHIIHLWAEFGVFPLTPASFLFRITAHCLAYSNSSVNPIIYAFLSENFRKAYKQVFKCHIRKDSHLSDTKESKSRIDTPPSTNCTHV
Method: as §1

H1 (h) = biological target: T16, H1 (h) (Homo sapiens, UniProt P35367); test: CEREP radioligand binding; settings: % of control specific binding
T16 construct: purchased CEREP
Method: as §1

M2 (h) = biological target: T17, M2 (h) (Homo sapiens, UniProt P08172); test: CEREP radioligand binding; settings: % of control specific binding
T17 construct: purchased CEREP
T17 sequence (P08172 whole entry): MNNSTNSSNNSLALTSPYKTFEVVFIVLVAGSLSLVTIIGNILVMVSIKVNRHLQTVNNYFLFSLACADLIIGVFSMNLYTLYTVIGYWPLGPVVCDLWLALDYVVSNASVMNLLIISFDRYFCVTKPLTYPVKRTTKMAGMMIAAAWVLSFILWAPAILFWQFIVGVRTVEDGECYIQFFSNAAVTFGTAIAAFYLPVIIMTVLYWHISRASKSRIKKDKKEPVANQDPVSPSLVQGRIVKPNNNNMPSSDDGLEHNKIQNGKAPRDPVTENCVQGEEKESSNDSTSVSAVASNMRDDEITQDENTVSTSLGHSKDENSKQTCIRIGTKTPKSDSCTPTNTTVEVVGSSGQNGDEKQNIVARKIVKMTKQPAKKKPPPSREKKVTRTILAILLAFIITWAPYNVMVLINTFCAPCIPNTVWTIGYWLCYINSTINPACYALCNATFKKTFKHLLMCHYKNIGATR
Method: as §1

MT1 (h) = biological target: T18, MT1 (h) (Homo sapiens, UniProt P48039); test: CEREP radioligand binding; settings: % of control specific binding
T18 construct: purchased CEREP
Method: as §1

NK1 (h) = biological target: T19, NK1 (h) (Homo sapiens, UniProt P25103); test: CEREP radioligand binding; settings: % of control specific binding
T19 construct: purchased CEREP
Method: as §1

NK3 (h) = biological target: T20, NK3 (h) (Homo sapiens, UniProt P29371); test: CEREP radioligand binding; settings: % of control specific binding
T20 construct: purchased CEREP
Method: as §1

NT1 (h) (NTS1) = biological target: T21, NT1 (h) (NTS1) (Homo sapiens, UniProt P30989); test: CEREP radioligand binding; settings: % of control specific binding
T21 construct: purchased CEREP
T21 sequence (P30989 whole entry): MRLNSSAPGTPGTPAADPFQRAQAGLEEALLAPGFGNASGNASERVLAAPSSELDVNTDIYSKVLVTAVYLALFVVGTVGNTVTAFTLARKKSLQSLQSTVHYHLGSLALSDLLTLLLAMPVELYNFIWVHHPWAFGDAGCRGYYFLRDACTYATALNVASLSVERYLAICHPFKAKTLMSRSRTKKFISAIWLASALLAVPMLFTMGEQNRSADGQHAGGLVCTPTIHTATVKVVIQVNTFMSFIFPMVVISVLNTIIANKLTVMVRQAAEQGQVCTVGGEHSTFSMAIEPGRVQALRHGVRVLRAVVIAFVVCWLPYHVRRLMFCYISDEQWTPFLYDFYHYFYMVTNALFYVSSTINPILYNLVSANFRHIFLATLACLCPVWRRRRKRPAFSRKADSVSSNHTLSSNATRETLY
Method: as §1

ORL1 (h) (NOP) = biological target: T22, ORL1 (h) (NOP) (Homo sapiens, UniProt P41146); test: CEREP radioligand binding; settings: % of control specific binding
T22 construct: purchased CEREP
Method: as §1

P2X = test: CEREP radioligand binding; settings: % of control specific binding
Method: as §1

P2Y = test: CEREP radioligand binding
Method: as §1

PCP = test: CEREP radioligand binding; settings: % of control specific binding
Method: as §1

TXA2/PGH2 (h) (TP) = biological target: T23, TXA2/PGH2 (h) (TP) (Homo sapiens, UniProt P21731); test: CEREP radioligand binding; settings: % of control specific binding
T23 construct: purchased CEREP
T23 sequence (P21731 whole entry): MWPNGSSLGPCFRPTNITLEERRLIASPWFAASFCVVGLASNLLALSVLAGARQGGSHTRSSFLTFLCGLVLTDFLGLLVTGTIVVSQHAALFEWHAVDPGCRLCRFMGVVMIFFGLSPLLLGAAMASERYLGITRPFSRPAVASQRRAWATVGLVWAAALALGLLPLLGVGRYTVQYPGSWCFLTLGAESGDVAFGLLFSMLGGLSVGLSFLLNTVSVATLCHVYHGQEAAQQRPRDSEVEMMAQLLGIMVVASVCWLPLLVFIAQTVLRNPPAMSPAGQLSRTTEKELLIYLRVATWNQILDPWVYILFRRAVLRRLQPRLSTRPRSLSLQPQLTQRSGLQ
Method: as §1

VIP1 (h) (VPAC1) = biological target: T24, VIP1 (h) (VPAC1) (Homo sapiens, UniProt P32241); test: CEREP radioligand binding; settings: % of control specific binding
T24 construct: purchased CEREP
Method: as §1

Y1 (h) = biological target: T25, Y1 (h) (Homo sapiens, UniProt P25929); test: CEREP radioligand binding; settings: % of control specific binding
T25 construct: purchased CEREP
Method: as §1

Y2 (h) = biological target: T26, Y2 (h) (Homo sapiens, UniProt P49146); test: CEREP radioligand binding; settings: % of control specific binding
T26 construct: purchased CEREP
Method: as §1

alpha 1 (non-selective) = test: CEREP radioligand binding; settings: % of control specific binding
Method: as §1

alpha 2 (non-selective) = test: CEREP radioligand binding; settings: % of control specific binding
Method: as §1

sigma (non-selective) = test: CEREP radioligand binding; settings: % of control specific binding
Method: as §1

TNF-alpha (h) = test: CEREP radioligand binding; set-up: species or system human; settings: % of control specific binding
Method: as §1

[2] = biological target: T27, TRH1 (h) (antagonist effect) (Homo sapiens, UniProt P34981); test: CEREP screen, antagonist effect; assay type: biochemical; settings: % of control
T27 construct: purchased CEREP
Method: as §1

hHCRTR2 = biological target: hHCRTR2; set-up: method as in PMID 9821961; settings: 37°C; cited from earlier work

Cc1nc2ccc(NC(=O)Nc3ccnc4cccnc34)cc2o1.Cl [SB-334867, 1-(2-methylbenzoxazol-6-yl)-3-[1], [5]naphthyridin-4-yl-urea hydrochloride]
brain level ([1]; 3 mg/kg ip): 48 ng/mL
plasma level ([1]; 3 mg/kg ip): 220 ng/mL
brain level ([1]; 10 mg/kg ip): 171 ng/mL
plasma level ([1]; 10 mg/kg ip): 718 ng/mL
brain level ([1]; 30 mg/kg ip): 142 ng/mL
plasma level ([1]; 30 mg/kg ip): 738 ng/mL
% Control (10 µM) Mean SB (5-HT5A (h)): 84.1%
% Control (10 µM) Mean SB (5-HT6 (h)): 102.9%
% Control (10 µM) Mean SB (5-HT7 (h)): 99.9%
displacement of specific binding (A2A (h); 10 µM, A2A (adenosine)): 89%
% Control (10 µM) Mean SB (A2A (h); % of control specific binding): 10.6%
% Control (10 µM) Mean SB (AT1 (h)): 102.3%
% Control (10 µM) Mean SB (AT2 (h)): 114.4%
% Control (10 µM) Mean SB (BB (non-selective)): 109.9%
% Control (10 µM) Mean SB (CCKA (h) (CCK1)): 108.8%
% Control (10 µM) Mean SB (CGRP (h)): 103.6%
% Control (10 µM) Mean SB (CXCR2 (h) (IL-8B)): 110.5%
% Control (10 µM) Mean SB (D1 (h)): 82.7%
% Control (10 µM) Mean SB (D3 (h)): 97.1%
% Control (10 µM) Mean SB (D5 (h)): 118.6%
% Control (10 µM) Mean SB (DA transporter (h)): 72.4%
% Control (10 µM) Mean SB (ETA (h)): 97.3%
% Control (10 µM) Mean SB (GABA (non-selective)): 105.5%
% Control (10 µM) Mean SB (GAL1 (h)): 118.5%
% Control (10 µM) Mean SB (H1 (h)): 100.3%
% Control (10 µM) Mean SB (M2 (h)): 87.3%
% Control (10 µM) Mean SB (MT1 (h)): 102.4%
% Control (10 µM) Mean SB (NK1 (h)): 104.4%
% Control (10 µM) Mean SB (NK3 (h)): 86.3%
% Control (10 µM) Mean SB (NT1 (h) (NTS1)): 106.9%
% Control (10 µM) Mean SB (ORL1 (h) (NOP)): 102.9%
% Control (10 µM) Mean SB (P2X): 94.9%
displacement of specific binding (P2Y; 10 µM, P2Y (purinergic 2Y)): 64%
% Control (10 µM) Mean SB (P2Y; % of control specific binding): 36.4%
% Control (10 µM) Mean SB (PCP): 91.8%
% Control (10 µM) Mean SB (TXA2/PGH2 (h) (TP)): 98.8%
% Control (10 µM) Mean SB (VIP1 (h) (VPAC1)): 101%
% Control (10 µM) Mean SB (Y1 (h)): 102.7%
% Control (10 µM) Mean SB (Y2 (h)): 113%
% Control (10 µM) Mean SB (alpha 1 (non-selective)): 87.5%
% Control (10 µM) Mean SB (alpha 2 (non-selective)): 96.1%
% Control (10 µM) Mean SB (sigma (non-selective)): 98.6%
% Control (10 µM) Mean SB (TNF-alpha (h)): 96.8%
% Control (10 µM) Mean SB [2]: 78.5%

CNC(=O)[C@@H](c1ccccc1)N1CCc2cc(OC)c(OC)cc2[C@@H]1CCc1ccc(C(F)(F)F)cc1 [almorexant, (2R)-2-[(1S)-6,7-Dimethoxy-1-[2-(4-trifluoromethyl-phenyl)-ethyl]-3,4-dihydro-1H-isoquinolin-2-yl]-N-methyl-2-phenyl-acetamide]
Ki (hHCRTR2): 0.9 nM
